#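 Five concentrations, 48 hours, 96-well plates. GI50 marks 50% less growth.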 Calls of active or inactive are those of the source. No stated cut-off is given here; in the data, active = GI50 up to about 1.1 µM and inactive = higher.
# What was measured:
# Experiment in all cases: NCI-60 cell line screen, 48 h
# LOX IMVI = test system: LOX IMVI
# HT-29 = test system: HT-29
# TK-10 = test system: TK-10
# 786-0 = test system: 786-0
# SN12C = test system: SN12C
# MOLT-4 = test system: MOLT-4
# UACC-257 = test system: UACC-257
# OVCAR-4 = test system: OVCAR-4
# T47D = test system: T47D
# ACHN = test system: ACHN
# OVCAR-8 = test system: OVCAR-8
# SK-OV-3 = test system: SK-OV-3
# CCRF-CEM = test system: CCRF-CEM
# SR = test system: SR
# K562 = test system: K562
# SW-620 = test system: SW-620
# HL-60 = test system: HL-60
Structure (SMILES),GI50 (LOX IMVI),GI50 (HT-29),GI50 (TK-10),GI50 (786-0),GI50 (SN12C),GI50 (MOLT-4),GI50 (UACC-257),GI50 (OVCAR-4),GI50 (T47D),GI50 (ACHN),GI50 (OVCAR-8),GI50 (SK-OV-3),GI50 (CCRF-CEM),GI50 (SR),GI50 (K562),GI50 (SW-620),GI50 (HL-60)
COc1ccccc1NCc1nnc(CCCCCCCCc2nnc(CNc3ccccc3OC)o2)o1,> 100 µM (inactive),> 100 µM (inactive),> 100 µM (inactive),> 100 µM (inactive),> 100 µM (inactive),> 100 µM (inactive),> 100 µM (inactive),> 100 µM (inactive),> 100 µM (inactive),> 100 µM (inactive),> 100 µM (inactive),> 100 µM (inactive),> 100 µM (inactive),> 100 µM (inactive),> 100 µM (inactive),,
O=C1CC2(CCN(Cc3ccccc3)CC2)C(=O)N1N1CCCCC1,> 100 µM (inactive),> 100 µM (inactive),> 100 µM (inactive),> 100 µM (inactive),> 100 µM (inactive),> 100 µM (inactive),> 100 µM (inactive),,> 100 µM (inactive),> 100 µM (inactive),> 100 µM (inactive),> 100 µM (inactive),,,> 100 µM (inactive),> 100 µM (inactive),> 100 µM (inactive)
C=CC(CBr)CCC(Br)C(C)(C)Br (centres undefined),,> 10 µM (inactive),> 10 µM (inactive),> 10 µM (inactive),> 10 µM (inactive),> 10 µM (inactive),> 10 µM (inactive),> 10 µM (inactive),> 10 µM (inactive),> 10 µM (inactive),> 10 µM (inactive),> 10 µM (inactive),> 10 µM (inactive),,> 10 µM (inactive),> 10 µM (inactive),
CC(=N/NC(=S)Nc1c(C)n(C)n(-c2ccccc2)c1=O)/C(C)=N\NC(=S)Nc1c(C)n(C)n(-c2ccccc2)c1=O,,> 100 µM (inactive),> 100 µM (inactive),> 100 µM (inactive),,> 100 µM (inactive),> 100 µM (inactive),> 100 µM (inactive),> 100 µM (inactive),> 100 µM (inactive),> 100 µM (inactive),> 100 µM (inactive),,> 100 µM (inactive),,> 100 µM (inactive),> 100 µM (inactive)
C/C(CC1SCCCS1)=C(/C)CC1SCCCS1,> 100 µM (inactive),> 100 µM (inactive),> 100 µM (inactive),> 100 µM (inactive),> 100 µM (inactive),> 100 µM (inactive),,> 100 µM (inactive),> 100 µM (inactive),> 100 µM (inactive),> 100 µM (inactive),,> 100 µM (inactive),> 100 µM (inactive),> 100 µM (inactive),> 100 µM (inactive),> 100 µM (inactive)
CC(C)(C)C(=O)OCC1CCC[N+]2(C)CCCCC12 (centres undefined),> 100 µM (inactive),> 100 µM (inactive),> 100 µM (inactive),> 100 µM (inactive),> 100 µM (inactive),> 100 µM (inactive),> 100 µM (inactive),> 100 µM (inactive),> 100 µM (inactive),> 100 µM (inactive),> 100 µM (inactive),> 100 µM (inactive),> 100 µM (inactive),> 100 µM (inactive),> 100 µM (inactive),> 100 µM (inactive),
CCC1(CC)CC(=NNS(=O)(=O)c2ccc(C)cc2)C1,> 100 µM (inactive),> 100 µM (inactive),> 100 µM (inactive),> 100 µM (inactive),> 100 µM (inactive),> 100 µM (inactive),> 100 µM (inactive),> 100 µM (inactive),> 100 µM (inactive),> 100 µM (inactive),> 100 µM (inactive),> 100 µM (inactive),> 100 µM (inactive),,> 100 µM (inactive),> 100 µM (inactive),> 100 µM (inactive)
COc1cc(S(=O)(=O)Nc2ccc(-c3csc(/N=C\c4cccc(Oc5ccccc5)c4)n3)cc2)ccc1Cl,19.3 µM (inactive),9.75 µM (inactive),,5.58 µM (inactive),25.1 µM (inactive),23 µM (inactive),,41.8 µM (inactive),16.2 µM (inactive),15.5 µM (inactive),25.6 µM (inactive),,32 µM (inactive),21.1 µM (inactive),22.6 µM (inactive),40.3 µM (inactive),23.2 µM (inactive)
COc1ccc(C2=NN(C(=O)c3ccc(Cl)cc3)C(O)(c3cc(F)c(Cl)cc3Cl)C2)cc1 (centres undefined),77.8 µM (inactive),17.3 µM (inactive),> 100 µM (inactive),> 100 µM (inactive),39.1 µM (inactive),12.8 µM (inactive),49.9 µM (inactive),8.61 µM (inactive),57.7 µM (inactive),> 100 µM (inactive),> 100 µM (inactive),> 100 µM (inactive),50.2 µM (inactive),,40.6 µM (inactive),,51.5 µM (inactive)
Cc1ccc(C(=O)N/N=C(\N=N\c2cccc([N+](=O)[O-])c2)c2ccc(N(C)C)cc2)cc1,99.8 µM (inactive),46.5 µM (inactive),> 100 µM (inactive),> 100 µM (inactive),> 100 µM (inactive),14.4 µM (inactive),58.3 µM (inactive),24.4 µM (inactive),,,97.1 µM (inactive),,35 µM (inactive),,30.3 µM (inactive),> 100 µM (inactive),27.9 µM (inactive)
COc1cc2c(c(O)c1O)C(=O)C1CCC(=O)N1C2c1cccc2ccccc12 (centres undefined),,> 50 µM (inactive),,> 50 µM (inactive),> 50 µM (inactive),> 50 µM (inactive),> 50 µM (inactive),> 50 µM (inactive),> 50 µM (inactive),> 50 µM (inactive),> 50 µM (inactive),> 50 µM (inactive),> 50 µM (inactive),> 50 µM (inactive),> 50 µM (inactive),> 50 µM (inactive),> 50 µM (inactive)
O=S1(=O)N=C(NCc2c[nH]c3ccccc23)N(c2ccccc2)c2ccncc21,> 100 µM (inactive),> 100 µM (inactive),> 100 µM (inactive),53.3 µM (inactive),81.7 µM (inactive),> 100 µM (inactive),> 100 µM (inactive),> 100 µM (inactive),> 100 µM (inactive),> 100 µM (inactive),27.4 µM (inactive),40.2 µM (inactive),> 100 µM (inactive),,> 100 µM (inactive),> 100 µM (inactive),> 100 µM (inactive)
Cn1nc(C(=O)N2CC(CCl)c3c2cc([N+](=O)[O-])c2ccccc32)cc1NC(=O)Nc1cc(C(=O)N2CC(CCl)c3c2cc([N+](=O)[O-])c2ccccc32)nn1C (centres undefined),,,> 100 µM (inactive),79.6 µM (inactive),> 100 µM (inactive),> 100 µM (inactive),> 100 µM (inactive),> 100 µM (inactive),> 100 µM (inactive),> 100 µM (inactive),,> 100 µM (inactive),,,> 100 µM (inactive),,
Nc1nc(Cl)cc(OCC2(CO)CC=CC2)n1,> 100 µM (inactive),> 100 µM (inactive),> 100 µM (inactive),> 100 µM (inactive),> 100 µM (inactive),> 100 µM (inactive),> 100 µM (inactive),> 100 µM (inactive),,> 100 µM (inactive),> 100 µM (inactive),,> 100 µM (inactive),> 100 µM (inactive),95.7 µM (inactive),> 100 µM (inactive),> 100 µM (inactive)
COc1cc(OC)cc(-c2nc3cc(F)ccc3s2)c1,53.8 µM (inactive),> 100 µM (inactive),15.8 µM (inactive),9.08 µM (inactive),36.4 µM (inactive),,> 100 µM (inactive),> 100 µM (inactive),10.5 µM (inactive),14.5 µM (inactive),30.8 µM (inactive),13.5 µM (inactive),> 100 µM (inactive),,,> 100 µM (inactive),
COc1cc(C2c3cc4c(cc3[C@@H](Nc3ccc(F)cc3)C3CO[C@@H](O)[C@H]23)OCO4)cc(OC)c1O (some centres undefined),,,12.3 µM (inactive),4.61 µM (inactive),5.12 µM (inactive),0.236 µM (active),20.7 µM (inactive),12.2 µM (inactive),3.72 µM (inactive),1.05 µM (active),6.01 µM (inactive),8.65 µM (inactive),0.925 µM (active),,4.37 µM (inactive),8.38 µM (inactive),0.598 µM (active)
O=c1c(C(c2ccc3ccccc3c2)c2c(O)oc3ccccc3c2=O)c(O)oc2ccccc12,34.6 µM (inactive),18.5 µM (inactive),61.8 µM (inactive),25.6 µM (inactive),20.6 µM (inactive),22.4 µM (inactive),51.5 µM (inactive),26.7 µM (inactive),39.1 µM (inactive),20.6 µM (inactive),16.1 µM (inactive),50.9 µM (inactive),46.5 µM (inactive),,50.6 µM (inactive),31.9 µM (inactive),34 µM (inactive)
CC(=O)Nc1ccc(-c2nc3ccccc3s2)cc1O,41.3 µM (inactive),34.7 µM (inactive),32.4 µM (inactive),41.1 µM (inactive),30.4 µM (inactive),14.6 µM (inactive),31.6 µM (inactive),92.3 µM (inactive),36.1 µM (inactive),27.3 µM (inactive),19.8 µM (inactive),,22.2 µM (inactive),61.9 µM (inactive),76.2 µM (inactive),84.5 µM (inactive),

# Source: ChEMBL document CHEMBL1201862, “PubChem BioAssay data set” (2004)
